Legend:
[1] = test system: human breast cancer cell lines; settings: six of eight cancer lines inhibited; cited from earlier work
PC3 = experiment: Cell-based proliferation assay, PC3; settings: Homo sapiens, PC-3; PC3 cells, 96 h treatment
Method: (§1) Human cancer cell lines PC3 and DU145 (human prostate cancer cell lines), were obtained from ATCC. They were cultured in the media according to the ATCC work instructions. PC3 and DU145 cells were seeded at 1,000 cells per well in 96-well plates, respectively. The plates were incubated at 37° C., 5% CO2, for 24 h. Cells were treated with compounds at various concentrations for 96 h. Cell proliferation was then quantified using Celltiter96 Aqueous One Solution Cell Proliferation Assay from Promega (Madison Wis.). Dose response curves were plotted to determine IC50 values for the compounds using XL-fit (ID Business Solution, Emeryville, Calif.).

PI3K p110α/p85 = target: T1, PI3K p110α/p85 (Homo sapiens, UniProt P42336); experiment: PI3K assay ([γ33P]ATP, PtdIns/PtdSer coated plates); format: biochemical; settings: 2 μM ATP, 1 hour at RT; read-out: IC50 (PI3Kα)
T1 construct: made in house

mTOR = mTOR (Homo sapiens, UniProt P42345); experiment: mTOR assay (phosphorylation of 4eBP1, [γ33P]-ATP filter plate); format: biochemical; settings: 10 μM ATP, 1 hour at room temperature
DU145 = experiment: Cell-based proliferation assay, DU145; settings: Homo sapiens, DU-145; DU145 cells, 96 h treatment
Method: as §1

T1 sequence (P42336 whole entry): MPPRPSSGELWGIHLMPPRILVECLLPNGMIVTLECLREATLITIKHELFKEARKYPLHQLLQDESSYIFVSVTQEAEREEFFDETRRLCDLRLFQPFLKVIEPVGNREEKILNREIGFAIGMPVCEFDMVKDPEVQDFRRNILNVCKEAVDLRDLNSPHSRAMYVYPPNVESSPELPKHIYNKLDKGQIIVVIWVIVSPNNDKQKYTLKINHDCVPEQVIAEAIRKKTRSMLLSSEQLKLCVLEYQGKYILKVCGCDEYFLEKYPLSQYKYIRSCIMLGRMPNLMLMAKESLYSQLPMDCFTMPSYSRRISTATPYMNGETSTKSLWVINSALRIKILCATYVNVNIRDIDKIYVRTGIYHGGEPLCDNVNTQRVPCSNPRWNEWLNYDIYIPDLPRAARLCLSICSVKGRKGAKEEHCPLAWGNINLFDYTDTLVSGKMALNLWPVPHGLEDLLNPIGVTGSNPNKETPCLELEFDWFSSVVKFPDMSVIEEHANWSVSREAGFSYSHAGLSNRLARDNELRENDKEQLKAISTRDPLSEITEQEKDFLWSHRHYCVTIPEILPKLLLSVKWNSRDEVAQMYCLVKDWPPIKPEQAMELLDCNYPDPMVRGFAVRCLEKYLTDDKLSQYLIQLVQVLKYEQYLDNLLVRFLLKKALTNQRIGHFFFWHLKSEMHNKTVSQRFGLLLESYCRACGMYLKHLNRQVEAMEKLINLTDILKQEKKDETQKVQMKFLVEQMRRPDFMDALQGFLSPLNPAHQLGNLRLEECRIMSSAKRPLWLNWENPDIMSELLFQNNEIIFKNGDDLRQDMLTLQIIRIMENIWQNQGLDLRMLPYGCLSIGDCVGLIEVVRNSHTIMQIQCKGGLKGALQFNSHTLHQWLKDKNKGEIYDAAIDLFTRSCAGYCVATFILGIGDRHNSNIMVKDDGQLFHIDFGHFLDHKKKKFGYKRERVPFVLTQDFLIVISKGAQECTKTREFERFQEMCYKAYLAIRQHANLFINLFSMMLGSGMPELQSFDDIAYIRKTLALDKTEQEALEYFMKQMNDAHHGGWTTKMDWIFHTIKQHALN
T1 sequence (P27986 whole entry partner): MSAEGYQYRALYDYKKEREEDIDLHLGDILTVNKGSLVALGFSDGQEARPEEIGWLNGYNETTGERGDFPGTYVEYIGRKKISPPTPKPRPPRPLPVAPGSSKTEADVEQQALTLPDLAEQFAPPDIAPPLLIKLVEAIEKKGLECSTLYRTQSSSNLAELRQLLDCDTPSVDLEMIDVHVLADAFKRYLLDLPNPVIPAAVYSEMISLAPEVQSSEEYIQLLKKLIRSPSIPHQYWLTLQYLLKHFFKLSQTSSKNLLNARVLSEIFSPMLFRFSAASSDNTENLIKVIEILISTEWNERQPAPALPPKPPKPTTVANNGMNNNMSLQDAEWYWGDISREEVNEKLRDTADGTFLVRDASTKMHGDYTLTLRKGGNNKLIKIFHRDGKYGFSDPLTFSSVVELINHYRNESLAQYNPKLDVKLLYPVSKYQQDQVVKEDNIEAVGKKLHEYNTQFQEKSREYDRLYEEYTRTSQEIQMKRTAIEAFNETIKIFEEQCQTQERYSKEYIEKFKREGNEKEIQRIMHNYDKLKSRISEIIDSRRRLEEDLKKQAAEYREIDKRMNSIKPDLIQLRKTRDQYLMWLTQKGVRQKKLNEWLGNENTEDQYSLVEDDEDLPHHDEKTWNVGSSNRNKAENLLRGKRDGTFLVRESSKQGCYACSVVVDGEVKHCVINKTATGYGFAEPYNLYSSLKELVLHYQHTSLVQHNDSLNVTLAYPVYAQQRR
mTOR, sequence (P42345 1382-2549 limits assumed): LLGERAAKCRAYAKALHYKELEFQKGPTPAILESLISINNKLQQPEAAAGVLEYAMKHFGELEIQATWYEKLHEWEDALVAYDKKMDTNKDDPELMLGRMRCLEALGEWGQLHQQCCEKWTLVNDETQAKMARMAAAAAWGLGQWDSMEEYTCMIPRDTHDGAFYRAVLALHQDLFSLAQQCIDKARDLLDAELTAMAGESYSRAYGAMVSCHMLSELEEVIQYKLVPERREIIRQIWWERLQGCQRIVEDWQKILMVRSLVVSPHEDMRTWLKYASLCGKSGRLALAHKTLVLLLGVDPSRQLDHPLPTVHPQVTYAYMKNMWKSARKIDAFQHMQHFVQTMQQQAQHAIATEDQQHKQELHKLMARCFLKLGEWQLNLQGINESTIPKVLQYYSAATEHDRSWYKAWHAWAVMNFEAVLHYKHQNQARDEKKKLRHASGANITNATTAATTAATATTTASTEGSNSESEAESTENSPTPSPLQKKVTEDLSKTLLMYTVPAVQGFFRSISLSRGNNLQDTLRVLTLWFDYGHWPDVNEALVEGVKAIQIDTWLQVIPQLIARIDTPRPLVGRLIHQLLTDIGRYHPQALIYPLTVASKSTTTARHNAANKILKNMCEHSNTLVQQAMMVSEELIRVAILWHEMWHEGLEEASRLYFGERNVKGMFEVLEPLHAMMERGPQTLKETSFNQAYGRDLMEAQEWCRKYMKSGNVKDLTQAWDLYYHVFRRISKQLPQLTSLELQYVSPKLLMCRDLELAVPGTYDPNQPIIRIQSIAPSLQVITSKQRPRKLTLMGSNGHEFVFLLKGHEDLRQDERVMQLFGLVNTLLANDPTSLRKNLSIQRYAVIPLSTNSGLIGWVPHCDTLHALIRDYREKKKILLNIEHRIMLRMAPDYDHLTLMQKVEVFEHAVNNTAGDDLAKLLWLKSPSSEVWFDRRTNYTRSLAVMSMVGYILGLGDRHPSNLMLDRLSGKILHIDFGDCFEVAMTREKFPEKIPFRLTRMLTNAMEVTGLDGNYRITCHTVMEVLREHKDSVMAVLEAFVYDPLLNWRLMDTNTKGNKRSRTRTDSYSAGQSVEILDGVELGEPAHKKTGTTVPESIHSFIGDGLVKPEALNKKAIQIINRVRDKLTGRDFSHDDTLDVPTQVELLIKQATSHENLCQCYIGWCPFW

| Structure (SMILES) | IC50 [1] | IC50 (PC3) | IC50 (PI3K p110α/p85) | IC50 (mTOR) | IC50 (DU145) |
| --- | --- | --- | --- | --- | --- |
| CO[C@H]1C[C@@H]2CC[C@@H](C)[C@@](O)(O2)C(=O)C(=O)N2CCCC[C@H]2C(=O)O[C@H]([C@H](C)C[C@@H]2CC[C@@H](OC(=O)C(C)(CO)CO)[C@H](OC)C2)CC(=O)[C@H](C)/C=C(\C)[C@@H](O)[C@@H](OC)C(=O)[C@H](C)C[C@H](C)/C=C/C=C/C=C/1C [CCI-779] | low nanomolar range | – | – | – | – |
| Cc1cccc(-n2cnc3c(-c4cccc(O)c4)nc(N4CCOCC4)nc32)c1 [Compound 27, 3-(2-Morpholin-4-yl-9-(3-methylphenyl)-9H-purin-6-yl)-phenol] | – | ≤ 1 µM | < 1 µM | < 1 µM | – |
| Oc1cccc(-c2nc(N3CCOCC3)nc3c2ncn3CC2CC2)c1 [Compound 50] | – | – | < 1 µM | < 1 µM | ≤ 1 µM |
| c1cc(-c2nc(N3CCOCC3)nc3c2ncn3CC2CC2)c2cc[nH]c2c1 [Compound 51] | – | – | < 1 µM | < 1 µM | 1 to 5 µM |
| Oc1cccc(-c2nc(N3CCOCC3)nc3c2ncn3C2CCCC2)c1 [Compound 54] | – | ≤ 1 µM | < 1 µM | < 1 µM | ≤ 1 µM |
| c1cc(-c2nc(N3CCOCC3)nc3c2ncn3C2CCCC2)c2cc[nH]c2c1 [Compound 63] | – | – | < 1 µM | < 1 µM | 1 to 5 µM |
| CC(C)C(C)n1cnc2c(-c3cccc4[nH]ccc34)nc(N3CCOCC3)nc21 (centres unmarked) [Compound 101] | – | ≤ 1 µM | < 1 µM | < 1 µM | – |

Reference: patent US20110009403A1, “2-MORPHOLINYLPURINES AS INHIBITORS OF PI3K” (S*BIO Pte Ltd., priority 2007, published 2011)
